From PubChem BioAssay (NCI)
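Assay format: 96-well plates, 48-hour exposure. TGI denotes the concentration required for complete inhibition of growth.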

Key:
Assay in all cases: inhibition of tumour cell growth, NCI panel, 48 h
[1] = system: SNB-78 CNS
[2] = system: COLO 205 colon
[3] = system: TK-10 renal
[4] = system: UACC-62 melanoma
[5] = system: SN12C renal
[6] = system: K-562 leukemia
[7] = system: HL-60(TB) leukemia
[8] = system: HOP-92 NSCLC
[9] = system: MOLT-4 leukemia
[10] = system: SR leukemia
[11] = system: NCI-H522 lung
[12] = system: NCI-H23 lung
[13] = system: SF-268 CNS
[14] = system: CAKI-1 renal
[15] = system: HCC-2998 colon
[16] = system: SK-OV-3 ovarian
[17] = system: UACC-257 melanoma
[18] = system: DMS 273 small cell lung
[19] = system: SK-MEL-28 melanoma
[20] = system: DLD-1 colon
[21] = system: A498 renal
[22] = system: M14 melanoma
[23] = system: NCI-H460 lung
[24] = system: HOP-62 NSCLC
[25] = system: SNB-75 CNS
[26] = system: CCRF-CEM leukemia
[27] = system: HCT-15 colon
[28] = system: IGROV1 ovarian
[29] = system: NCI-H226 lung
[30] = system: DMS 114 small cell lung
[31] = system: MALME-3M melanoma
[32] = system: RXF 393 renal
[33] = system: M19-MEL melanoma
[34] = system: OVCAR-8 ovarian
[35] = system: OVCAR-5 ovarian
[36] = system: A549 NSCLC
[37] = system: KM20L2 colon
[38] = system: SK-MEL-5 melanoma
[39] = system: SK-MEL-2 melanoma
[40] = system: 786-0 renal
[41] = system: LXFL 529 NSCLC
[42] = system: SF-295 CNS
[43] = system: OVCAR-3 ovarian
[44] = system: KM12 colon
[45] = system: U251 CNS
[46] = system: HCT-116 colon
[47] = system: OVCAR-4 ovarian
[48] = system: ACHN renal
[49] = system: RPMI-8226 leukemia
[50] = system: LOX IMVI melanoma
[51] = system: SW-620 colon
[52] = system: HT29 colon
[53] = system: SF-539 CNS
[54] = system: SNB-19 CNS
[55] = system: EKVX NSCLC
[56] = system: UO-31 renal
[57] = system: XF 498 CNS

Measured: TGI

COc1ccc(-c2cc(=O)c3c(OC)cccc3o2)c(OC)c1OC
74.4 µM: [25]
> 100 µM: [1] | [2] | [3] | [4] | [5] | [6] | [7] | [8] | [9] | [10] | [11] | [12] | [13] | [14] | [15] | [16] | [17] | [18] | [19] | [20] | [21] | [22] | [23] | [24] | [26] | [27] | [28] | [29] | [30] | [31] | [32] | [33] | [34] | [35] | [36] | [37] | [38] | [39] | [40] | [41] | [42] | [43] | [44] | [45] | [46] | [47] | [48] | [49] | [50] | [51] | [52] | [53]

COc1ccc(C(N)=O)c(OC)c1OCc1ccccc1
7.11 µM: [32]
81.7 µM: [11]
> 100 µM: [1] | [2] | [3] | [4] | [5] | [6] | [7] | [8] | [9] | [54] | [55] | [12] | [13] | [15] | [16] | [18] | [19] | [20] | [21] | [22] | [23] | [24] | [25] | [26] | [27] | [28] | [29] | [30] | [33] | [34] | [35] | [36] | [37] | [38] | [39] | [40] | [41] | [42] | [43] | [44] | [45] | [46] | [47] | [48] | [49] | [50] | [56] | [51] | [52] | [53]

O=C(Cn1ccnc1[N+](=O)[O-])c1ccccc1
> 100 µM: [2] | [3] | [4] | [5] | [6] | [7] | [8] | [9] | [54] | [55] | [11] | [12] | [13] | [14] | [15] | [16] | [17] | [18] | [19] | [20] | [21] | [22] | [23] | [24] | [25] | [26] | [27] | [28] | [29] | [31] | [32] | [33] | [34] | [35] | [36] | [37] | [38] | [39] | [40] | [41] | [42] | [43] | [44] | [47] | [57] | [48] | [49] | [50] | [56] | [51] | [52] | [53]
